Our source for the IC50 and inhibition values is ChEMBL document CHEMBL6127027, “Conserved gatekeeper methionine regulates the binding and access of kinase inhibitors to ATP sites of MAP2K1, 4, and 7: Clues for developing selective inhibitors” (Bioorg Med Chem Lett, 2024).

Assay [1] concerns the target T1, Dual specificity mitogen-activated protein kinase kinase 4 (Homo sapiens, UniProt P45985).
T1 sequence (P45985 whole entry): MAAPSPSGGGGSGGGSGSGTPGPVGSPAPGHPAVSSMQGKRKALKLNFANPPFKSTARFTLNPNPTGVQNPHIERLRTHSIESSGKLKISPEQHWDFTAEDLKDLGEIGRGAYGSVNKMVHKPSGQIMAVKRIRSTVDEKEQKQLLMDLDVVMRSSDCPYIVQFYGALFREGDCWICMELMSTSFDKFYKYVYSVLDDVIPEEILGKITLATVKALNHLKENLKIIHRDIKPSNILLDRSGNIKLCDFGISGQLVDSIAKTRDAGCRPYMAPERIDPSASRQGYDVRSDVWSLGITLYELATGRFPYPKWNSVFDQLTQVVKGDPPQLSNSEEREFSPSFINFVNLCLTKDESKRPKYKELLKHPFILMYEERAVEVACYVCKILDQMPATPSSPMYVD
Briefly: Inhibition of MAP2K4 (unknown origin).

For assay [2], the target named is Dual specificity mitogen-activated protein kinase kinase 1 (Homo sapiens, UniProt Q02750). Kind of assay: Inhibition of MAP2K1 (unknown origin).
Assay [3] addresses T2, Dual specificity mitogen-activated protein kinase kinase 7 (Homo sapiens) (UniProt O14733).
T2 sequence (whole entry): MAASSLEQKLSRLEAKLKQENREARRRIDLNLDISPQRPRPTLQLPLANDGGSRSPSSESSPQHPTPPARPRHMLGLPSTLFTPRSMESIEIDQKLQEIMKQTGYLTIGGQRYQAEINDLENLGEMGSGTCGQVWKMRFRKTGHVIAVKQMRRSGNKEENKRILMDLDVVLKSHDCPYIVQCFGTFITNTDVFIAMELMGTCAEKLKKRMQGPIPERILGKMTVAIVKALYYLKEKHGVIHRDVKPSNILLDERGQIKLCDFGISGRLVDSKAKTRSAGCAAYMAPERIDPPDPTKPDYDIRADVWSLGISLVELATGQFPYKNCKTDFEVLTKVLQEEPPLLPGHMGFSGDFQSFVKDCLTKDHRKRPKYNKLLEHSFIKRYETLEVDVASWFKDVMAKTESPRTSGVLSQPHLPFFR
Briefly: Inhibition of MAP2K7 (unknown origin) at 100 uM relative to control.

The target in assay [4] is T3, Dual specificity mitogen-activated protein kinase kinase 4 (Homo sapiens) (UniProt P45985).
T3 sequence (whole entry): T1 sequence (P45985 whole entry)
Kind of assay: Inhibition of MAP2K4 (unknown origin) at 100 uM.

Active and inactive are the calls of the source. No cut-off for these calls is given here.

For orientation: IC50 means the midpoint of a concentration-inhibition curve. Read a low IC50 as higher potency. The inhibition is the drop in the measured response relative to a control, in per cent.

Chain of Dual specificity mitogen-activated protein kinase kinase 1 (Q02750 whole entry): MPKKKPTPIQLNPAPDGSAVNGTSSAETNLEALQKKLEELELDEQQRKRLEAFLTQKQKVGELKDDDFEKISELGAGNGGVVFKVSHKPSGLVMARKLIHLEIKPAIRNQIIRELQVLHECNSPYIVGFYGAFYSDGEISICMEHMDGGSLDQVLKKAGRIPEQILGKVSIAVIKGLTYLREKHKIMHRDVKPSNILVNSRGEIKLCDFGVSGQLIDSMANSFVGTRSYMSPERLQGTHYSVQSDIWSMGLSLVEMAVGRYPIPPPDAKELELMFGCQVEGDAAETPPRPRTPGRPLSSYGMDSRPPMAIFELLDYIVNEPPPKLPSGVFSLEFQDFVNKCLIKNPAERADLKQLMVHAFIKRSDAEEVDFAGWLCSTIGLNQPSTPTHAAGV

The compound `COc1cc(O)c2c(c1)/C=C/C[C@H](O)[C@H](O)C(=O)/C=C\C[C@H](C)OC2=O` gave an IC50 in assay [1] of 4.7 µM.

Consider `COc1cc(O)c2c(c1)/C=C/C[C@H](O)[C@H](O)C(=O)CCC[C@H](C)OC2=O`, for which the concentration for half-maximal inhibition (IC50) in assay [2] turned out to be 5.2 µM. In assay [3], this compound registered an inhibition of 25%. The inhibition result in assay [4] is “inactive”.
